Experiments:
[1] = Plasma concentration when orally administered to humans; type: in vivo, human
Procedure: For the purpose of the assessment of the pharmacokinetics, tolerance and safety of Compound 1 when orally administered, the Compound 1 was administered at a single dose of 10 mg to 3 subjects of progressive prostate cancer patients after prostatectomy. So as to assay the plasma concentration of intact Compound 1, blood of 6 ml was collected in a lithium heparin-containing polyethylene tube, prior to administration and at individual times of 30 minutes, one hour, 1.5 hour, 2 hours, 3 hours, 4 hours, 6 hours, 8 hours, 12 hours, 24 hours, 36hours and 48hours after administration, followed by immediate centrifugation (4° C., 10 minutes, 3500 rpm), to recover the plasma. The plasma samples were stored under freezing at −70° C. until the concentration was assayed. The plasma concentration was assayed by the LC-MS/MS method.

human ETA receptor = biological target: T1, human ETA receptor (Homo sapiens, UniProt P25101); settings: Compound 1: WO97/22595; ABT-627: J.Pharmacol.Exp.Ther.,276,473-481,1996; read-out: affinity to human ETA receptor; cited from earlier work
T1 sequence (P25101 21-427): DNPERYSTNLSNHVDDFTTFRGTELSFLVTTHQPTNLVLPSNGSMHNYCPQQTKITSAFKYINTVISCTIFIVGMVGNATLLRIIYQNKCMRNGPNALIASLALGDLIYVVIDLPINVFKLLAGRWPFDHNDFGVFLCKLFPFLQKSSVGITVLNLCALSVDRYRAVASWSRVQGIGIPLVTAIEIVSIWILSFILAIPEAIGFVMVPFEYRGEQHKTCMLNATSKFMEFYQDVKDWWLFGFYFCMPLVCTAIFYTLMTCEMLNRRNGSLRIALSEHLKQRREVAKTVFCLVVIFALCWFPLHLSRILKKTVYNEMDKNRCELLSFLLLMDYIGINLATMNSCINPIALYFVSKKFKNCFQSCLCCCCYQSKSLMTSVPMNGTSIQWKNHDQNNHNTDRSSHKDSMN

[2] = system: mouse formalin-induced pain model; experiment: ET-1-induced enhancement of pain responses in mouse formalin-induced pain model; type: in vivo
Procedure: Suppressive effects of Compound 1 to the enhancement of pain responses induced by ET-1 in mouse formalin-induced pain model
Male ICR mice (age of 5 weeks; Nippon SLC) were used in these experiments.
The mice were placed in a cage for observation, to acclimate the mice to the environment for 5 minutes or longer; then, physiological saline of 20 μl was subcutaneously injected to the mouse left hind paws, while 0.7% formalin-containing physiological saline of 20 μl was subcutaneously injected to the mouse right hind paws. The duration of licking and biting reactions emerging immediately thereafter was counted every 5 minutes, for 40 minutes. After the termination of the counting, both the ankles were amputated and weighed. The reaction time immediately after formalin injection to 5 minutes later was defined as first phase; and the 30 minutes reaction time from 10 minutes after injection until 40 minutes later was defined in total as second phase, which were used as the indices of pain. Additionally, the edema calculated on the basis of the right foot weight minus the left foot weight (in mg) was used as an index of inflammatory reaction. Additionally, in all cases the licking reaction time was counted between 10:00 and 18:00.
0.7% formalin-containing physiological saline containing ET-1 at doses of 3, 10 and 30 pmol/paw was subcutaneously injected in the right hind paws to examine the action of ET-1 to enhance formalin-induced pain and edema.
Compound 1 (0.3 to 3 mg/kg) was orally administered at a dose of 1 ml/100 g. Sixty minutes after oral administration, 0.7% formalin-containing physiological saline containing ET-1 (10 pmol/paw) was subcutaneously injected in the right hind paws, to examine the effect of the Compound 1 on the ET-1-induced enhancements of formalin-induced pain and edema.
The results are shown in the form of mean±standard error. The significant difference between two groups was calculated the p-value by Students unpaired t-test. The significant difference between groups was analyzed by one-way analysis of variance, to calculate the p-values by the Dunnett's multiple range test. The p-value below 5% was defined as statistically significant.

prostate cancer patients = experiment: Clinical study in prostate cancer patients; type: in vivo, human
Procedure: A clinical study was carried out under the following conditions using the patients suffering from prostate cancer.
Subjects: eighteen patients of at least 45 years of age with prostate cancer(stage D2) who are hormone-refractory or have relapsed after anti-androgen therapy.
Strength: 2,10 and 40 mg tablets
Dosage: 2,4,10,20,60,120and 240 mg/day-dose frequency was once daily ot twice daily
Duration of treatment: four weeks (28 days)
Parameters for evalution: Evaluations and measurements were made for the following items before and after the administration.
(1) Prostate specific antigen (PSA)
(2) Born metabolism markers (bone alkaline phosphatase or ratio of deoxypyridinoline/creatinine)
(3) Bone pain (change of visual analogue scale(VAS)/use of analgesics)

[3] = system: MC3T3-E1, mouse osteoblast-like cells; experiment: ET-1-induced cell number increase in MC3T3-E1 (cell counting kit, WST-1); type: cell-based
Procedure: MC3T3-E1, mouse osteoblast-like cells, was used in these experiments (Journal of Cell Biology,96(1),191-198,1983).
Cell number was counted by using a reagent solution of a cell counting kit (DOJINDO). The cells were seeded at a density of 1.0×10^4 cells/well in a 24-well plate using 0.5% FCS culture medium and cultured for one day. Subsequently, vehicle or ET-1 was added to the plate and cultured for 72 hours. Continuously, a reagent solution was added at 100 μl/well to the culture and incubated at 37° C. for 3 hours. After this reaction, 200-μl portions were transferred from the individual wells of the 24-well plate to a 96-well plate, to measure the absorbance (at a wave length of 405 nm and a reference wave length of 650 nm) with a plate reader. As a control, the count of a culture to which the vehicle was added was defined 100%, thus the percentage increase of cell number was calculated. […]
The results are shown in the form of mean±standard error. The significant difference between groups was analyzed by one-way analysis of variance, to calculate the p-values by the Dunnett's multiple range test. […] At each experiment, the EC50 value of ET-1 and the IC50 value of the Compound 1 were calculated by the Logistic regression analysis.

[4] = single oral dose 10 mg, prostate cancer patients, plasma
[5] = 0.3, 1 and 3 mg/kg p.o., 60 min before ET-1 10 pmol/paw
[6] = 2-240 mg/day, four weeks, eighteen patients

COc1ccccc1Oc1c(NS(=O)(=O)C=Cc2ccccc2)nc(-c2ncccn2)nc1OC.[K] [Compound 1, N-[6-methoxy-5-(2-methoxyphenoxy)-2-(2-pyrimidinyl)-4-pyrimidinyl]-2-phenylethenesulfoneamide•potassium salt]
AUC ratio Compound 1 (10 mg)/ABT-627 (20 mg) ([1]; oral, humans, listed as The effective component of the invention): about 18 fold | AUC [1, 4]: 14700 ng·h/mL | Cmax [1, 4]: 1000 ng/mL | T max [1, 4]: 2 h | T ½ [1, 4]: 13 h | Ki (human ETA receptor): 0.697 nM | suppression of ET-1-induced enhancement of formalin-induced edema [2, 5]: significantly suppressed | suppression of ET-1-induced enhancement of formalin-induced pain, first phase [2, 5]: significantly suppressed | suppression of ET-1-induced enhancement of formalin-induced pain, second phase [2, 5]: significantly suppressed | effective dose relative to the minimum effective dose of ABT-627 (prostate cancer patients; 2 mg vs 10 mg): ⅕ | patients with decreased bone specific alkaline phosphatase (prostate cancer patients; [6]): eleven (out of eighteen) | patients with improved pain score VAS (prostate cancer patients; [6]): nine (out of eighteen) | patients with improved prostate cancer marker PSA (prostate cancer patients; [6]): ten | patients with improved ratio of deoxypyridinoline/creatinine (prostate cancer patients; [6]): fourteen (out of eighteen) | patients with reduced analgesics (prostate cancer patients; [6]): four (out of eighteen) | patients with stabilized PSA (prostate cancer patients; [6]): two | dose from which effective (prostate cancer patients; Test Example 5, prostate cancer patients): ≥ 2 mg | dose from which effective in improving each observed item (prostate cancer patients; oral tablets, four weeks): ≥ 2 mg/day | IC50 ([3]; ET-1 10^−9 M): 9.54 nM

ET-1: endothelin; induces pain in humans and experimental animals; used as stimulus of pain, Ca2+ increase and cell growth [reference compound]
ET-1-induced enhancement of formalin-induced edema ([2]; ET-1 3, 10 and 30 pmol/paw with 0.7% formalin s.c. in hind paw): significantly enhanced | ET-1-induced enhancement of formalin-induced pain, first phase ([2]; ET-1 3, 10 and 30 pmol/paw with 0.7% formalin s.c. in hind paw, 0-5 min): significantly enhanced | ET-1-induced enhancement of formalin-induced pain, second phase ([2]; ET-1 3, 10 and 30 pmol/paw with 0.7% formalin s.c. in hind paw, 10-40 min): significantly enhanced | EC50 ([3]; ET-1 10^−12 to 10^−6 M, WST-1): 0.022 nM
